Assay results from patent US8664235B2, “6-Halogeno-[1,2,4]triazolo[1,5-a]pyrimidines for combating animal pests” (Merial Limited, priority 2003, dated 2014).

Experiments:
Format in all cases: in vivo
[1] = tested on: Green Peach Aphid (Myzus persicae); assay: Green peach aphid test, pepper leaves dipped; conditions: 120 h, read-out: mortality in comparison with untreated controls
Experimental: (§1) Surfactant (Alkamuls EL 620) was added at the rate of 0.1% (vol/vol).
(§2) After the experiments were completed, in each case the lowest concentration was determined at which the compound still caused an 75 to 100% inhibition or mortality in comparison with untreated controls (limit or minimal concentration).
(§3) Pepper plants in the 2nd leaf-pair stage (variety ‘California Wonder’) are infested with approximately 40 laboratory-reared aphids by placing infested leaf sections on top of the test plants. The leaf sections are removed after 24 hr. The leaves of the intact plants are dipped into gradient solutions of the test compound. Aphid mortality on the treated plants, relative to mortality on check plants, is determined after 5 days.

[2] = tested on: Twospotted Spider Mite (Tetranychus urticae); assay: Twospotted spider mite test, lima bean foliage dipped; conditions: foliar, 120 h, lima bean plants, after 5 days, read-out: mortality in comparison with untreated controls
Experimental: as §1, §2
Lima bean plants in the 1st leaf-pair stage (variety ‘Henderson’) are infested with approximately 100 laboratory-reared mites per leaf by placing infested leaf sections on top of the test plants. The leaf sections are removed after 24 hr. The foliage of the intact plants is dipped into gradient solutions of the test compound. Mite mortality is determined after 5 days.

Bean Aphid (Aphis fabae) = assay: Bean aphid test, nasturtium foliage and stem dipped; conditions: foliar, 72 h, nasturtium plants, after 3 days, read-out: mortality in comparison with untreated controls
Experimental: as §1, §2
Nasturtium plants in the 1st leaf-pair stage (variety ‘Mixed Jewel’) are infested with approximately 25 laboratory-reared aphids by placing infested cut plants on top of the test plants. The cut plants are removed after 24 hr. The foliage and stem of the test plants are dipped into gradient solutions of the test compound. Aphid mortality is determined after 3 days.

[3] = tested on: Cotton Aphid (Aphis gossypii); assay: Cotton aphid test, cotyledons dipped in test solution; conditions: 120 h, cotton plants, after 5 days, read-out: mortality in comparison with untreated controls
Experimental: as §1, §2
as §3, with “Cotton” for “Pepper”, “cotyledon” for “2nd leaf-pair”, “‘Delta Pine’)” for “‘California Wonder’)”, “100” for “40”, “cotyledons” for “leaves”

SMILES | mortality at 300 ppm [1] [%] | mortality at 300 ppm [2] [%] | mortality at 300 ppm (Bean Aphid (Aphis fabae)) [%] | mortality at 300 ppm [3] [%]
CCc1nc2ncnn2c(N[C@H]2CC[C@@H](C(C)(C)C)CC2)c1Cl [Example 1, (cis-4-tert-butyl-cyclohexyl)-[6-chloro-5-ethyl-[1,2,4]triazolo[1,5-a]pyrimidin-7-yl]-amine] | 100 | > 75 | > 75 | > 75
Cc1nc2ncnn2c(N[C@@H](C)c2ccc(F)cc2)c1Cl [Example 114, (S)-(6-chloro-5-methyl-[1,2,4]triazolo[1,5-a]pyrimidin-7-yl)-[1-(4-fluorophenyl)-ethyl]-amine] | 100 |  |  | > 75
